Source: patent publication US20080012929A1, “AZO DYE, HEAT-SENSITIVE TRANSFER RECORDING INK SHEET, HEAT-SENSITIVE TRANSFER RECORDING METHOD, COLOR TONER, INKJET INK AND COLOR FILTER” (FUJIFILM Corporation, priority 2006, published 2008)

What was measured:
[1] = Solubility of dye when preparing the ink sheet dye-providing layer-coating composition; format: physicochemical; design: key: A: the dye easily dissolves; B: the dye dissolves; C: the dye is sparingly soluble, but dissolves; conditions: methyl ethyl ketone/toluene (1/1), polyvinylbutyral resin
Method: A polyester film of 6.0 μm in thickness (trade name: Lumirror, manufactured by Toray Industries, Inc.), a back surface of which had been subjected to a heat resistant lubricating treatment with a 1 μm thick thermosetting acrylic resin, was used as a support. On the front surface of the film, the following dye-providing layer-coating composition was coated by a wire bar coating so that a dry thinness of the dye-providing layer became 1 μm. Thus, Ink sheet 1 was prepared.
Solubility of these dyes contained in these ink sheets were evaluated according to the following three grades: • A: the dye easily dissolves. • B: the dye dissolves. • C: the dye is sparingly soluble, but dissolves.

[2] = Light stability (fastness to light) of the dye image under Xenon light irradiation; format: physicochemical; conditions: residual ratio of Status A reflection density (initial 1.0) after Xenon light (17000 lux) for 7 days
Method: Next, each of the thus-image-recorded heat-sensitive transfer image-receiving materials was subjected to irradiation with Xenon light (17000 lux) for 7 days, to examine light stability (fastness to light) of the dye image. Status A reflection densities after irradiation were measured in the portions indicating Status A reflection density of 1.0, and a stability of the image was evaluated in terms of a residual ratio (percentage) based on the reflection density before irradiation, according to the following three grades: • A: 80% or more, but 100% or less • B: 60% or more, but less than 80% • C: less than 60%

Row | Compound | Solubility of dye [1] | Light fastness [2]
1 | CCCCCn1nc(C(C)(C)C)c(N=Nc2ccc([N+](=O)[O-])cc2)c1N [(5)] | A | A (80% or more, but 100% or less)
2 | CC(C)Cn1nc(C(C)(C)C)c(N=Nc2ccc([N+](=O)[O-])cc2)c1N [(7)] | A | A (80% or more, but 100% or less)
3 | CCC(C)n1nc(C(C)(C)C)c(N=Nc2ccc([N+](=O)[O-])cc2)c1N (stereo not drawn) [(8)] | A | A (80% or more, but 100% or less)
4 | CC(C)CCn1nc(C(C)(C)C)c(N=Nc2ccc([N+](=O)[O-])cc2)c1N [(9)] | A | A (80% or more, but 100% or less)
5 | CCN(CCOc1ccc(C2CCCCC2)cc1)c1ccc(C=C(C#N)C#N)c(C)c1 [Dye for Comparison 2, reference compound] | A | C (less than 60%)
6 | CCCCN(CCCC)C(=O)c1ccc2c(c1)C(=O)C(c1nc3ccc(C(C)C)cc3cc1O)C2=O (stereo not drawn) [Dye for Comparison 3, reference compound] | B | A (80% or more, but 100% or less)
